Values of other authors as cited in patent US10399946B2, “Solid forms of an S-Nitrosoglutathione reductase inhibitor” (Alpine Immune Sciences, Inc., priority 2015, dated 2019).

Legend:
[1] = target: S-nitrosoglutathione reductase (GSNOR) (Homo sapiens, UniProt P11766); conditions: variety of assays and therapeutic models
[2] = described in WO2012/048181, US 62/061,557, 62/093,712, 62/138,792, 62/209,724, WO 2016/057811

Sequence of S-nitrosoglutathione reductase (GSNOR) (P11766 whole entry): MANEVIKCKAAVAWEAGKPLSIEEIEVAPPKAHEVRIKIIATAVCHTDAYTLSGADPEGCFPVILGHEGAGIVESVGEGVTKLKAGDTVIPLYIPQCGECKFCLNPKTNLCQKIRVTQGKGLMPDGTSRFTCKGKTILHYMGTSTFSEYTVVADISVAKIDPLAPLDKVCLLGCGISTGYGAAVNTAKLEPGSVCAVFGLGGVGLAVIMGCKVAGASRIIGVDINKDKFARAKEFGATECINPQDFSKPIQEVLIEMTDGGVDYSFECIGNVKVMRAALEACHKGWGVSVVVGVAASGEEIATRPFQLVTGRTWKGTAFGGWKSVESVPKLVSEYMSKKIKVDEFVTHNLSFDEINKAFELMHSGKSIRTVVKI

inhibition of S-nitrosoglutathione reductase (GSNOR) [1]: selective and reversible inhibition
SMILES: O=C(O)c1ccc(-c2ccc3cc(O)ccc3n2)c(Cl)c1 [Compound 1, 3-chloro-4-(6-hydroxyquinolin-2-yl)benzoic acid]
efficacy in asthma, COPD, cystic fibrosis, and IBD models [2]: demonstrates efficacy
